Tests used:
[1] = In vitro human microsomal stability assay; assay type: in vitro ADME
Protocol: (§1) Test compounds were evaluated for metabolic stability in an in vitro rat microsomal stability assay using rat (Sprague-Dawley, from BD Biosciences) liver microsomes and/or an in vitro human microsomal stability assay using human (Xenotech) liver microsomes. […] Incubations were carried out at 37° C. with a final incubation volume of 135 μL. […] A 1.5 μL aliquot of reduced nicotine adenine disphosphonucleotide (NADPH) (Chem-Impex Int'L Inc., Lot 12532024) was also added to the time-zero plates.

[2] = In vitro rat microsomal stability assay; assay type: in vitro ADME, rat (Sprague-Dawley)
Protocol: as §1

[3] = Sprague-Dawley, rat, 0.5 h, 0.5 μM, pH 7.4
[4] = 0.5 μM substrate, 0.25 mg/mL microsomal protein, pH 7.4, 37° C., NADPH, 30 minutes

Row | Structure (SMILES) | HUMAN MICROSOMAL STABILITY (% REMAINING AFTER 30 MINUTES) ([1]; human, 0.5 h, 0.5 μM, pH 7.4) [%] | RAT MICROSOMAL STABILITY (% REMAINING AFTER 30 MINUTES) [2, 3] [%] | HUMAN MICROSOMAL STABILITY (% REMAINING AFTER 30 MINUTES) [1, 4] [%] | RAT MICROSOMAL STABILITY (% REMAINING AFTER 30 MINUTES) [2, 4] [%]
1 | OC1CC(c2ccc(C(F)(F)F)cc2)([C@@H](O)c2ccccn2)C1 (mixture of isomers) [Example 199, 3-[(R)-hydroxy(pyridin-2-yl)methyl]-3-[4-(trifluoromethyl)phenyl]-cyclobutanol] | >85 | >85 | – | –
2 | OC(c1ccccn1)C1(c2cccc(F)c2)CCCO1 (single isomer, unassigned) [Example 101, (syn)-[2-(3-fluorophenyl)tetrahydrofuran-2-yl](pyridin-2-yl)methanol] | 40 | 0.17 | – | –
3 | OC1CC(c2ccc(OC(F)(F)F)cc2)(C(O)c2ccccn2)C1 (single isomer, unassigned) [Example 131] | >85 | 50 | – | –
4 | OC(C1CCCc2cccnc21)C1(c2ccc(OC(F)(F)F)cc2)CCC1 (single isomer, unassigned) [Example 178, (syn)-5,6,7,8-tetrahydroquinolin-8-yl{1-[4-(trifluoromethoxy)phenyl]-cyclobutyl}methanol] | 9.2 | <0.01 | – | –
5 | OC(C1CCCc2cccnc21)C1(c2cccc(C(F)(F)F)c2)CCC1 (single isomer, unassigned) [Example 180, (syn)-5,6,7,8-tetrahydroquinolin-8-yl{1-[3-(trifluoromethyl)phenyl]-cyclobutyl}methanol] | <0.01 | <0.01 | – | –
6 | OC(C1CCCc2cccnc21)C1(c2ccc(Cl)c(Cl)c2)CCC1 (single isomer, unassigned) [Example 182, (syn)-[1-(3,4-dichlorophenyl)cyclobutyl][5,6,7,8-tetrahydroquinolin-8-yl]-methanol] | <0.01 | <0.01 | – | –
7 | OC(C1CCCc2cccnc21)C1(c2ccc(C(F)(F)F)cc2)CCC1 (single isomer, unassigned) [Example 184, (syn)-5,6,7,8-tetrahydroquinolin-8-yl{1-[4-(trifluoromethyl)phenyl]-cyclobutyl}methanol] | 0.46 | <0.01 | – | –
8 | OC1CC(c2ccc(Cl)c(Cl)c2)(C(O)c2ncccn2)C1 (single isomer, unassigned) [Example 313] | 81 | >85 | – | –
9 | OC(c1ccccn1)C1(c2ccccn2)CCC1 (centres unmarked) [Example 19, pyridin-2-yl(1-pyridin-2-ylcyclobutyl)methanol] | >85 | 76 | – | –
10 | OC(c1ccccn1)C1(c2cccnc2)CCC1 (centres unmarked) [Example 20, pyridin-2-yl(1-pyridin-3-ylcyclobutyl)methanol] | 80 | 81 | – | –
11 | OC(c1ccccn1)C1(c2ccncc2)CCC1 (centres unmarked) [Example 21, pyridin-2-yl(1-pyridin-4-ylcyclobutyl)methanol] | 71 | 52 | – | –
12 | O[C@H](c1ncccn1)C1(c2ccc(C(F)(F)F)cc2)CCC1 [Example 41, (S)-pyrimidin-2-yl{1-[4-(trifluoromethyl)phenyl]cyclobutyl}methanol] | 54 | 21 | – | –
13 | O[C@@H](c1ncccn1)C1(c2ccc(C(F)(F)F)cc2)CCC1 [Example 42, (R)-pyrimidin-2-yl{1-[4-(trifluoromethyl)phenyl]cyclobutyl}methanol] | 50 | 40 | – | –
14 | OC(c1ccccn1)C1(c2ccc(Cl)c(Cl)c2)CCCCC1 (centres unmarked) [Example 43, [1-(3,4-dichlorophenyl)cyclohexyl](pyridin-2-yl)methanol] | 1.8 | 0.31 | – | –
15 | OC(c1ccccn1)C1(c2ccc(Cl)c(Cl)c2)COC1 (centres unmarked) [Example 87, [3-(3,4-dichlorophenyl)oxetan-3-yl](pyridin-2-yl)methanol] | 47 | 8.6 | – | –
16 | OC(c1ccccn1)C1(c2ccccc2F)CCCO1 (centres unmarked) [Example 102] | 45 | 0.55 | – | –
17 | Nc1cccnc1C(O)C1(c2cccc(C(F)(F)F)c2)CCC1 (centres unmarked) [Example 120, (3-aminopyridin-2-yl){1-[3-(trifluoromethyl)phenyl]cyclobutyl}methanol] | 1.6 | <0.01 | – | –

Row | Structure (SMILES) | HUMAN MICROSOMAL STABILITY (% REMAINING AFTER 30 MINUTES) ([1]; human, 0.5 h, 0.5 μM, pH 7.4) [%] | RAT MICROSOMAL STABILITY (% REMAINING AFTER 30 MINUTES) [2, 3] [%] | HUMAN MICROSOMAL STABILITY (% REMAINING AFTER 30 MINUTES) [1, 4] [%] | RAT MICROSOMAL STABILITY (% REMAINING AFTER 30 MINUTES) [2, 4] [%]
18 | Nc1cccnc1C(O)C1(c2ccc(OC(F)(F)F)cc2)CCC1 (centres unmarked) [Example 121, (3-aminopyridin-2-yl){1-[4-(trifluoromethoxy)phenyl]cyclobutyl}methanol] | 41 | 0.18 | – | –
19 | O[C@@H](c1ccccn1)C1(c2cc(C(F)(F)F)ccn2)CCC1 [Example 122, (R)-pyridin-2-yl{1-[4-(trifluoromethyl)pyridin-2-yl]cyclobutyl}methanol] | 28 | 26 | – | –
20 | Nc1cccnc1C(O)C1(c2cccc(OC(F)(F)F)c2)CCC1 (centres unmarked) [Example 124, (3-aminopyridin-2-yl){1-[3-(trifluoromethoxy)phenyl]cyclobutyl}methanol] | 1.6 | <0.01 | – | –
21 | OC(c1ccccn1)C1(c2ccc(Cl)c(Cl)c2)CCNCC1 (centres unmarked) [Example 140, [4-(3,4-dichlorophenyl)piperidin-4-yl](pyridin-2-yl)methanol] | >85 | 37 | – | –
22 | CN1CCC(c2ccc(Cl)c(Cl)c2)(C(O)c2ccccn2)CC1 (centres unmarked) [Example 141, [4-(3,4-dichlorophenyl)-1-methylpiperidin-4-yl](pyridin-2-yl)methanol] | – | – | >85 | 59
23 | OC(c1ccccn1)C1(c2ccccc2OC(F)(F)F)CCNCC1 (centres unmarked) [Example 142, pyridin-2-yl{4-[2-(trifluoromethoxy)phenyl]piperidin-4-yl}methanol] | >85 | 37 | – | –
24 | CN1CCC(c2ccc(C(F)(F)F)cc2)(C(O)c2ccccn2)CC1 (centres unmarked) [Example 143, {1-methyl-4-[4-(trifluoromethyl)phenyl]piperidin-4-yl}(pyridin-2-yl)-methanol] | – | – | >85 | 80
25 | OC(c1ccccn1)C1(c2ccc(OC(F)(F)F)cc2)CCNCC1 (centres unmarked) [Example 144, pyridin-2-yl{4-[4-(trifluoromethoxy)phenyl]piperidin-4-yl}methanol] | >85 | 51 | – | –
26 | OC(c1ccccn1)C1(c2ccc(C(F)(F)F)cc2)CCNCC1 (centres unmarked) [Example 147, pyridin-2-yl{4-[4-(trifluoromethyl)phenyl]piperidin-4-yl}methanol] | >85 | 79 | – | –
27 | CC(C)(C)OC(=O)N1CCC(c2ccc(C(F)(F)F)cc2)(C(O)c2ccccn2)CC1 (centres unmarked) [Example 156, tert-butyl 4-[hydroxy(pyridin-2-yl)methyl]-4-[4-(trifluoromethyl)phenyl]-piperidine-1-carboxylate] | 26 | 0.08 | – | –
28 | CC(C)(C)OC(=O)N1CCC(c2ccc(OC(F)(F)F)cc2)(C(O)c2ccccn2)CC1 (centres unmarked) [Example 157, tert-butyl 4-[hydroxy(pyridin-2-yl)methyl]-4-[4-(trifluoromethoxy)phenyl]-piperidine-1-carboxylate] | 28 | 0.93 | – | –
29 | CC(C)(C)OC(=O)N1CCC(c2cccc(OC(F)(F)F)c2)(C(O)c2ccccn2)CC1 (centres unmarked) [Example 158, tert-butyl 4-[hydroxy(pyridin-2-yl)methyl]-4-[3-(trifluoromethoxy)phenyl]-piperidine-1-carboxylate] | – | – | 3.7 | 0.04
30 | O=C1CC(c2ccc(C(F)(F)F)cc2)([C@H](O)c2ccccn2)C1 [Example 164, 3-[(S)-hydroxy(pyridin-2-yl)methyl]-3-[4-(trifluoromethyl)phenyl]-cyclobutanone] | 71 | 81 | – | –
31 | O=C1CC(c2ccc(C(F)(F)F)cc2)([C@@H](O)c2ccccn2)C1 [Example 165, 3-[(R)-hydroxy(pyridin-2-yl)methyl]-3-[4-(trifluoromethyl)phenyl]cyclobutanone] | 83 | 77 | – | –
32 | OC(C1CCc2cccnc21)C1(c2ccc(Cl)c(Cl)c2)CCC1 (stereo not drawn) [Example 167, (anti)-[1-(3,4-dichlorophenyl)cyclobutyl][6,7-dihydro-5H-cyclopenta[b]-pyridin-7-yl]methanol] | 9.5 | <0.01 | – | –
33 | OC(C1CCc2cccnc21)C1(c2cccc(C(F)(F)F)c2)CCC1 (stereo not drawn) [Example 186, (syn)-6,7-dihydro-5H-cyclopenta[b]pyridin-7-yl{1-[3-(trifluoromethyl)-phenyl]cyclobutyl}methanol] | 0.18 | – | – | –

— patent US8772500B2, “TRPV3 modulators” (AbbVie Inc., priority 2011, dated 2014)
